Counter-ions that a name gives are not always drawn.
Key:
[1] = target: T1, SLC-1 expression CHO cell membrane fraction (MCH receptor) (Homo sapiens, UniProt Q99705); assay: Antagonistic activity of test compound using GTPγS binding assay; format: biochemical, human/rat; conditions: [35S]-GTPγS binding stimulated by MCH, 25° C., 1 hr, read-out: inhibitory activity (IC50: nM)
T1 construct: expressed in transfected cells; host or cells: CHO cells (human SLC-1 clone 57 / rat SLC-1 clone 44), membrane fraction
T1 sequence (Q99705 whole entry): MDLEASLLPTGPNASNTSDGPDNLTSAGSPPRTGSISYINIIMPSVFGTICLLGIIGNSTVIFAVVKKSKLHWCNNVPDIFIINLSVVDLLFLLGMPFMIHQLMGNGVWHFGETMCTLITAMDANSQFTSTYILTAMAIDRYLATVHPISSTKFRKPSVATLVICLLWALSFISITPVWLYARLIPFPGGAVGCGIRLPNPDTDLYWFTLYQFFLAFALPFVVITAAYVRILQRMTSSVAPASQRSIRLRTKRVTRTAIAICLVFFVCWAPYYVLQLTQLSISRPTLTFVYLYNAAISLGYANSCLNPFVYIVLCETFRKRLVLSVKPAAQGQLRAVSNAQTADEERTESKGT
Protocol: Determination of Antagonistic Activity of Test Compound using GTPγS Binding Assay
Using human SLC-1 expression CHO cell clone 57 and rat SLC-1 expression CHO cell clone 44 described in WO01/82925, SLC-1 expression CHO cell membrane fractions were prepared by the following method. In phosphate buffered saline (pH 7.4) supplemented with 5 mM EDTA (ethylenediaminetetraacetic acid) were suspended human and rat SLC-1 expression CHO cells (1×10^8) and centrifuged. Homogenate buffer (10 ml, 10 mM NaHCO3, 5 mM EDTA, pH 7.5) was added to the pellets of the cells and, using Polytron Homogenizer, the mixture was homogenated. The supernatant obtained after centrifugation at 400×g for 15 min was further centrifuged at 100,000×g for 1 hr to give precipitate of the membrane fraction. The precipitate was suspended in 2 ml of an assay buffer [50 mM Tris-HCl (pH 7.5), 1 mM EDTA, 0.1% BSA (bovine serum albumin), 10 mM MgCl2, 100 mM NaCl, 1 μM GDP (guanosine 5′-diphosphate), 0.25 mM PMSF (phenylmethylsulfonyl fluoride), […] pepstatin, […] leupeptin, […] phosphoramidon] and centrifuged at 100,000×g for 1 hr. The membrane fraction recovered as precipitate was suspended again in 20 ml of an assay buffer, and after dispensing, preserved at −80° C. and used upon thawing each time when in use.
The antagonistic activity of the test compound was determined as follows. The SLC-1 expression CHO cell membrane fraction (171 μl) diluted with an assay buffer was dispensed to a polypropylene 96 well plate and 3×10^−10 M MCH (2 μl) diluted with DMSO solution, test compound solution (2 μl) diluted to various concentrations and [^35S]-Guanosine 5′-(γ-thio)triphosphate ([…] Daiichi Pure Chemicals Co., Ltd.) were respectively added (cell membrane final concentration: 20 μg/ml, [^35S]-Guanosine 5′-(γ-thio)triphosphate final concentration: 0.33 nM). The reaction mixture was reacted at 25° C. for 1 hr with stirring, suction filtered with a glass filter (GF-C) and washed 3 times with a wash solution (300 μl, 50 mM Tris-HCl buffer, pH 7.5). Liquid scintillator ([…]) was added to the glass filter and the residual radioactivity was determined by a liquid scintillation counter. Binding inhibition (%)=(radioactivity upon addition of test compound and MCH−radioactivity upon addition of DMSO solution)/(radioactivity upon addition of MCH−radioactivity upon addition of DMSO solution)×100
From the binding inhibition (%), IC50 of the test compound was calculated.

melting point	IC50 [1]	Compound
175 to 179 °C	0.4 nM	CC(c1ccc(CCn2cnc3cc(-c4ccc(Cl)cc4)sc3c2=O)cc1)N1CCCCC1 (stereo not drawn) [Example 2, 6-(4-chlorophenyl)-3-{2-[4-(1-piperidin-1-ylethyl)phenyl]ethyl}thieno[3,2-d]pyrimidin-4(3H)-one]
176 to 178 °C	4.8 nM	CC(=O)N(C)Cc1ccc(CCn2cnc3cc(-c4ccc(Cl)cc4)sc3c2=O)cc1 [Example 6, N-(4-{2-[6-(4-chlorophenyl)-4-oxothieno[3,2-d]pyrimidin-3(4H) -yl]ethyl}benzyl)-N-methylacetamide]
207 to 212 °C	5 nM	CN(CC(N)=O)Cc1ccc(CCn2cnc3cc(-c4ccc(Cl)cc4)sc3c2=O)cc1 [Example 32, N^2-(4-{2-[6-(4-chlorophenyl)-4-oxothieno[3,2-d]pyrimidin-3(4H) -yl]ethyl}benzyl)-N^2-methylglycinamide]
156 to 158 °C	4.7 nM	CN(C)C(=S)N(C)Cc1ccc(CCn2cnc3cc(-c4ccc(Cl)cc4)sc3c2=O)cc1 [Example 9, N-(4-{2-[6-(4-chlorophenyl)-4-oxothieno[3,2-d]pyrimidin-3(4H) -yl]ethyl}benzyl)-N,N′,N′-trimethylthiourea]
163 to 166 °C	0.3 nM	O=c1c2sc(-c3ccc(Cl)cc3)cc2ncn1CCc1ccc(CN2CCCC2)cc1 [Example 1, 6-(4-chlorophenyl)-3-{2-[4-(pyrrolidin-1-ylmethyl)phenyl]ethyl}thieno[3,2-d]pyrimidin-4(3H)-one]
218 to 221 °C	3.2 nM	O=C1CCCN1Cc1ccc(CCn2cnc3cc(-c4ccc(Cl)cc4)sc3c2=O)cc1 [Example 11, 6-(4-chlorophenyl)-3-(2-{4-[(2-oxopyrrolidin-1-yl)methyl]phenyl}ethyl)thieno[3,2-d]pyrimidin-4(3H)-one]
	10 nM	CC(=O)N(C)N(C)c1ccc(CCn2cnc3cc(-c4ccc(Cl)cc4)sc3c2=O)cc1 [Example 22, N′-[4-[2-[6-(4-chlorophenyl)-4-oxothieno[3,2-d]pyrimidin-3(4H)-yl]ethyl]phenyl]-N,N′-dimethylacetohydrazide]
	0.4 nM	CNCc1ccc(CCn2cnc3cc(-c4ccc(Cl)cc4)sc3c2=O)cc1 [Example 4, 6-(4-chlorophenyl)-3-(2-{4-[(methylamino)methyl]phenyl}ethyl)thieno[3,2-d]pyrimidin-4(3H)-one dihydrochloride]
	1.2 nM	O=c1c2sc(-c3ccc(Cl)cc3)cc2ncn1CCc1ccc(CN2CC[C@H](F)C2)cc1 [Example 18, 6-(4-chlorophenyl)-3-[2-(4-{[(3S)-3-fluoropyrrolidin-1-yl]methyl}phenyl)ethyl]thieno[3,2-d]pyrimidin-4(3H)-one]

Reference: patent publication US7989445B2, “Thienopyrimidone compound” (Takeda Pharmaceutical Company Limited, priority 2005, dated 2011)
